The results in this text go back to ChEMBL document CHEMBL3507680, “University of Dundee, Gates Library screen for HepG2 cell viability”.

The data set can be described thus: Human HepG2 cell viability assay in 384 well format. It is filed as toxicity, cell-based. The arrangement: dose 125 nL, time 70.5 hour; cytotoxicity at 70.5 h: concentration not given beside the values. As to conditions: HepG2 cells, read-out: Inhibition.

Regarding `O=C(NC1CCCC1)c1ccc(COCC(F)(F)F)o1`, the cytotoxicity at 70.5 h is -0.375%.
With `CCOc1ccc(NC(=O)N(CCN(C)C)C(C)c2ccncc2)cc1` (stereo unspecified), the cytotoxicity at 70.5 h was 13.6%.
Consider `CCOCCCNC(=O)C(NC(=O)Cc1cccs1)c1ccccc1` (stereo unspecified), for which the cytotoxicity at 70.5 h was found to be 4.71%.
Next, `O=C(NC1CCCCC1)c1ccc(COCC(F)(F)F)o1`: 19.8%; `CCC(=O)Nc1ccccc1Sc1nc(Br)nn1C`: -8.59%.
`Cn1nc(Br)nc1Sc1ccccc1NC(=O)C1CC1`: the cytotoxicity at 70.5 h was 1.89%.
The figure for `CCCN1CCc2nc(SCc3ccc(F)cc3)[nH]c(=O)c2C1` is -3.74%; for `CC(=O)Nc1c(C)noc1/C=C\c1ccc(S(=O)(=O)N2CCCC2)cc1` it is -3.48%; for `COC(=O)c1ccc(-c2ccc(/C=C3\C(=O)NC(=N)N3C)o2)cc1` it is 12.1%.
Next, `COc1ccc(Cl)c(-c2noc3ncn(CCC(=O)O)c(=O)c23)c1`: -20.8%; `COC(=O)Cn1c(C)cc(=O)n2nc(-c3cccs3)nc12`: 13.3%.
`Cc1cc(Cc2ccc(S(=O)(=O)N3CCCC3)cc2)c(=O)[nH]n1`: the cytotoxicity at 70.5 h was -23.4%.
The figure for `CCOC(=O)CNC(=O)NCc1cc(C)n(-c2ccccc2OC)c1C` is 14.4%.
The figure for `COc1ccccc1-n1c(C)cc(CNC(=O)NC(C)C)c1C` is -9.03%; for `COc1ccc(Nc2nc(N)c(C(C)=O)s2)cc1Cl` it is -9.72%.
Next, `COc1cccc(CNc2c(O)c(=O)c2=O)c1`: -20.2%; `CC(=O)N1N=C(COc2ccc3c(c2)OCO3)OC1c1cccc(Cl)c1` (stereo unspecified): -2.04%.
With `CN1CC=C(c2noc(CCC(=O)N3CCc4ccccc4C3)n2)CC1`, the cytotoxicity at 70.5 h was -15%.
As for `COCCCNC(=O)N1CCN(C(=O)c2nsc3ccccc23)CC1`, the cytotoxicity at 70.5 h is -18.1%.
Regarding `COCCCNC(=O)N1CCN(C(=O)c2nsc3ccc(C)cc23)CC1`, the cytotoxicity at 70.5 h was determined as 20.4%.
Next, `COc1cnc(CSc2nnc(C)s2)cc1OCC(N)=O`: 15.1%; `CCN(CC)C(=O)CSc1nc2nc(C)ccc2o1`: 11.9%; `CC(c1ccncc1)N(CCN(C)C)C(=O)Nc1ccc(Cl)c(Cl)c1` (stereo unspecified): -11.5%.
Take `COC(=O)c1cccc(C(=O)NCc2ccco2)n1`: the cytotoxicity at 70.5 h was -15.9%.
The figure for `O=C1COc2ccc(S(=O)(=O)NCCC3=CCCCC3)cc2N1` is 0.831%.
Next, `Nc1nnc(SCc2cc(=O)n3c4c(sc3n2)CCCC4)s1`: -8.05%.
With `Cc1n[nH]c2c1C(c1ccc(F)cc1)SCC(=O)N2` (stereo unspecified), the cytotoxicity at 70.5 h was -4.92%.
The figure for `O=C(Nc1ccc2c(c1)OCCO2)N1CCCC1c1ccco1` (stereo unspecified) is -10.5%; for `CCc1ccccc1NCc1nc2[nH]c(C)c(C)c(=O)n2n1` it is 10.8%; for `Cc1cccc(NC(=O)Nc2c[nH]c(=O)[nH]c2=O)c1C` it is -1.56%.
The figure for `O=c1cc(CSc2nnc[nH]2)nc2sc3c(n12)CCCC3` is -10.9%; for `Cc1nnc(SCc2cc(=O)n3c4c(sc3n2)CCCC4)[nH]1` it is -8.32%.
`COCCNC(=O)c1cnc(N(C)C)nc1C`: the cytotoxicity at 70.5 h is -5.03%.
The figure for `CC(=O)c1cccc(NC(=O)c2cnc(N3CCN(C)CC3)nc2C)c1` is 12.8%; for `CCC1CN(CC(=O)NCCN(CC)CC)c2ccccc2S1` (stereo unspecified) it is -6.69%.
The figure for `O=C(c1cccs1)N1CCN(Cc2cc(=O)c3ccccc3[nH]2)CC1` is -4.26%.
Next, `CCC(CC)C(=O)N1CCN(Cc2cc(=O)c3ccccc3[nH]2)CC1`: 7.24%; `COc1ccc(C)cc1NC(=O)Nc1cnc(O)nc1O`: -6.34%; `Cc1nn(C)c2c(=O)n(CC(=O)NCc3ccccn3)ccc12`: 0.706%.
As to `Cc1nn(C)c2c(=O)n(CC(=O)NCCC(C)C)ccc12`, the cytotoxicity at 70.5 h is -5.71%.
Next, `Cc1nn(C)c2c(=O)n(CC(=O)NCc3ccc(N(C)C)cc3)ccc12`: -0.296%.
Next, `COc1ccc(CNC(=O)Cn2ccc3sccc3c2=O)cc1`: 12.8%; `CC(NC(=O)Cn1ccc2sccc2c1=O)c1ccccc1` (stereo unspecified): -10.1%.
Turning to `O=C(Cn1ccc2sccc2c1=O)NCc1ccc(F)cc1`, the cytotoxicity at 70.5 h was -9.4%.
Next, `O=C(Cn1ccc2sccc2c1=O)NCc1ccccc1F`: -5.13%; `CCc1ccc(CNC(=O)Cn2ccc3sccc3c2=O)cc1`: 2.36%; `COC(=O)CSc1nnc(CCNC(=O)OC(C)(C)C)o1`: -4.92%.
Next, `CCOCCCNC(=O)CCCC(=O)n1nc(C)c2ccccc21`: -3.2%; `CC1=C(c2ccc(F)cc2)S(=O)(=O)N=C1N1CCc2ccccc21`: -4.74%; `O=C(NCCCN1CCOCC1)c1ccc(-n2ccc3ccccc32)s1`: -3.96%.
Next, `CCOc1nc2cnccc2n(CC(=O)Nc2ccccc2OC)c1=O`: -7.54%; `O=C(CSC1=NS(=O)(=O)c2cc(F)ccc2N1)c1ccccc1`: -3.16%.
Consider `COc1cccc(NC(=O)c2nc3ccccc3n(C)c2=O)c1`, for which the cytotoxicity at 70.5 h was -6.23%.
Next, `COc1cc(CN2CCCCCC2c2cccs2)cc(OC)c1OC` (stereo unspecified): -9.84%; `Oc1ccccc1CN1CCCCCC1c1cccs1` (stereo unspecified): -5.04%.
The figure for `COC(=O)CNC(=O)N1CCN(c2nc3ccccc3n2C)CC1` is 26.4%.
Turning to `CCS(=O)(=O)N1CCc2ccc(NC(=O)Nc3ccccc3C)cc21`, the cytotoxicity at 70.5 h is -11%.
Next, `CCS(=O)(=O)N1CCc2ccc(NC(=O)Nc3ccccc3)cc21`: 9.4%; `CCS(=O)(=O)N1CCc2ccc(NC(=O)Nc3cccc(C#N)c3)cc21`: 17.6%; `COC(=O)c1cccc(C(=O)N2CCN(c3ccc(Cl)cc3)CC2)n1`: -6.13%.
Next, `COC(=O)c1cccc(C(=O)N2CCN(c3ccc(OC)cc3)CC2)n1`: -7.54%; `O=C(Cc1ccsc1)NCC1Cn2nnc(-c3ccoc3)c2CO1` (stereo unspecified): -4.44%.
Turning to `COc1ccc(CC(=O)N2CCc3nc(C(=O)N(C)C)sc3CC2)cc1`, the cytotoxicity at 70.5 h is -4%.
Next, `CC(C)N(C)Cc1nnc2n1CCCN(C(=O)C1CCCO1)C2` (stereo unspecified): -7.64%.
`Cc1ccc(OCC(=O)N2CCCC(n3nc(C)nc3C)C2)cc1` (stereo unspecified): the cytotoxicity at 70.5 h was -8.6%.
Next, `Cc1ccc(OCCC(=O)N2CCCC(n3nc(C)nc3C)C2)cc1` (stereo unspecified): -11.7%; `COc1c(C2CCCN2C(=O)c2cccc(C)n2)c(C)nn1C` (stereo unspecified): -16.2%.
`CC1CN(Cc2cccnc2)CCN1c1ccc2nncn2n1` (stereo unspecified): the cytotoxicity at 70.5 h was -8.86%.
Next, `O=C(Cc1ccccc1)NCCNCc1cccc(O)c1`: 36.6%.
The figure for `CN(C)C(=O)c1cccc(CN2CCOC(Cn3cncn3)C2)c1` (stereo unspecified) is -4.81%; for `COc1ccc(-n2ccc(C(=O)NCCN3CCCC(C)C3)n2)cc1` (stereo unspecified) it is 23.3%; for `c1cnn(CC2CCCN2Cc2noc(C3CC3)n2)c1` (stereo unspecified) it is -3.73%.
Next, `CCc1csc(C2CCCN(C(=O)c3ccccn3)C2)n1` (stereo unspecified): -7.06%; `c1ccc(Oc2ccc(CNCC3CNc4ccnn4C3)cn2)cc1` (stereo unspecified): -9.82%; `Clc1cccc(-c2nc(CNC3CCc4ncnn4C3)co2)c1` (stereo unspecified): 11.6%.
Take `O=C1CN(c2ccc(CNC(=O)NCc3ccoc3)cc2)CCN1`: the cytotoxicity at 70.5 h is -11.8%.
Next, `CC(C)C(NC(=O)NCCNc1ncccn1)c1cccs1` (stereo unspecified): -6.23%; `O=C(NCCN1CCCCC1)c1ccn(-c2ccccc2)n1`: 24.7%; `O=C(Cc1cccc(F)c1)NCCCNC(=O)c1cccc(O)c1`: -2.95%.
With `COc1ccc(OC2CCN(Cc3ccn(C)c(=O)c3)CC2)cc1`, the cytotoxicity at 70.5 h stood at 0.479%.
The figure for `COc1ccccc1CNC(=O)C[S+]([O-])Cc1cc(C)on1` (stereo unspecified) is -3.68%.
With `Clc1ccccc1-c1nc(CNC2CCc3ncnn3C2)co1` (stereo unspecified), the cytotoxicity at 70.5 h was -2.04%.
Next, `CCc1csc(C2CCCN(C(=O)c3ncccn3)C2)n1` (stereo unspecified): -0.847%.
Next, `CC(C(=O)NCc1ccc(N2CCNC(=O)C2)cc1)c1cccs1` (stereo unspecified): -4.67%; `COC(=O)c1cccc(S(=O)(=O)NC(=O)COC2CCCCC2)c1`: -3.15%.
Next, `COc1ccc(S(=O)(=O)NC(=O)COC2CCCC2)cc1`: -5.57%; `Cc1nc(C)n(CC2CCCN(Cc3ncc(C(C)(C)C)o3)C2)n1` (stereo unspecified): 23%; `CCn1cnnc1CNC(=O)N1CCN(c2nccs2)CC1`: -3.76%.
For the compound `CC(NC(=O)CCn1cccn1)c1ccc2c(c1)OCCO2` (stereo unspecified), the cytotoxicity at 70.5 h came out at 14.2%.
Next, `CCn1cnnc1CNC(=O)N1CCN(c2ccccc2Cl)CC1`: -3.38%; `CCn1cnnc1CNC(=O)N1CCN(c2ccc(OC)cc2)CC1`: -11.7%; `Cc1cc(C(=O)N2CCCC2)ccc1NCc1nc(CC(C)C)no1`: -9.73%.
Next, `CCn1cnnc1CNC(=O)N1CCN(c2ccccc2O)CC1`: -13.9%; `Cc1ccccc1-c1noc(CN2CCC(N3CCNC3=O)CC2)n1`: 40.4%.
The figure for `Cc1cc(C)n(CC2CN(CC(=O)N3CCC3)CCO2)n1` (stereo unspecified) is -13.4%.
Consider `Cc1cc(C)n(CC2CN(CC(=O)N3CCNC3=O)CCO2)n1` (stereo unspecified), for which the cytotoxicity at 70.5 h is -1.37%.
As for `O=C(c1ccccc1Cl)N1CCN(CCc2ccccn2)CC1`, the cytotoxicity at 70.5 h is -5.74%.
`COCCN1CC[C@H]2CN(c3cc(OC)ncn3)C[C@@H]2C1=O`: the cytotoxicity at 70.5 h was found to be 24.4%.
The figure for `CC[C@@H]1N(CC2CC2)CCC[C@]12CCC(=O)N2` is -1.41%.
`COCCN1CCCC12CCN(Cc1cccnc1OC)CC2`: the cytotoxicity at 70.5 h came to 31.2%.
As for `COCCCN1CCCC12CCN(Cc1cccnc1OC)CC2`, the cytotoxicity at 70.5 h is 1.58%.
